Measurements taken from paper doi:10.1101/2025.01.17.633651, “Markovian State Models uncover Casein Kinase 1 dynamics that govern circadian period” (bioRxiv, 2025).

Target: CK1 D132A
Test: Radioactive (32P-ATP) timecourse kinase assay, CK1 D132A mutant
Assay type: biochemical, human
Settings: 200 μM peptide, 20 nM CK1 (primed) or 200 nM CK1 (unprimed), 750 μM ATP, 30 °C (Figure S15B-C)
Description: PER FASP region peptides were synthesized and purified to 95% or higher (SABio). Two independent reaction mixtures of 50 μL containing 200 μM of the FASP or in reaction buffer (25 mM Tris pH 7.5, 7.5 mM MgCl2, 1 mM DTT, 0.1 mg/mL BSA) were preincubated for 5 minutes with or without 20 nM CK1 (for primed FASP) or 200 nM CK1 (for unprimed FASP) and the reaction was started by addition of 750 μM of UltraPure ATP (Promega) containing 1–2 μCi of X-^32p ATP (Perkin Elmer). After incubation of the reaction mix at 30 °C, an 8 μL aliquot of the reaction mix was transferred to P81 phosphocellulose paper (Reaction Biology Corp) at the indicated timepoints. The P81 paper was washed three times with 75 mM of orthophosphoric acid and once with acetone. The air-dried P81 paper was counted for Pi incorporation using a scintillation counter (Perkin Elmer) by Cherenkov counting. Results shown are from four independent assays.

RKKKTEVSAHLSSLTLPGKAESVVSLTSQ [unprimed FASP peptide, synthetic mouse PER2 FASP region peptide, unprimed CK1 substrate]
kinase activity, CK1 D132A compared with CK1 WT: dramatic loss in activity

RKKKTEVSAHLSSLTLPGKAEpSVVSLTSQ [primed FASP peptide, synthetic mouse PER2 FASP peptide phosphorylated at the priming serine]
kinase activity, CK1 D132A compared with CK1 WT: more modest effect
